Patent publication US20050288347A1, “Certain triazole-based compounds, compositions, and uses thereof” (priority 2004, published 2005)
Entries after “also recorded” stand apart in the source; their conditions may differ.

Target: protein kinase
Test: HTS ATP-utilizing enzyme assay, off-chip mobility-shift format (Caliper HTS 250)
Assay type: biochemical, human
Conditions: test compound 10 μM; for Kinase: kinase(s) for which the compound exhibits protein kinase inhibitory activity, active = greater than three-sigma from the mean activity of inactive compounds; for protein kinase against which the compound exhibits inhibitory activity (Table 3): active = activity greater than three-sigma from the mean of the predominately inactive population for that enzyme
Method in brief: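 Single-point screen at 10 μM compound in HEPES pH 7.5 buffer with Triton X-100 and BSA, 2.5 h at 20–22 °C. Substrate-to-phosphopeptide ratio measured by off-chip microfluidic mobility shift; EDTA wells as 100% and DMSO wells as 0% control, hits called at three-sigma limits.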

Compound | Kinase | protein kinase against which the compound exhibits inhibitory activity (Table 3)
CCOC(=O)c1c(NC(=O)CSc2nnc(-c3ccccc3O)n2-c2ccc(C)cc2)sc(C(C)=O)c1C | LCK | –
Cc1ccc(-n2c(S)nnc2-c2ccccc2O)cc1 [2-(5-mercapto-4-p-tolyl-4H-1,2,4-triazol-3-yl)phenol] | AURORA-A | –
N#CCSc1nnc(-c2ccc(O)cc2)n1Cc1ccco1 | GSK3-β; also recorded: GSK3-α; also recorded: AURORA-A | –
CCOc1ccc2nc(-c3ccc(OC)cc3)cc(-c3nnc(SCc4ccc(F)cc4F)n3C)c2c1 | – | CHEK2
Cc1ccc(NCc2nnc(SCC#N)n2-c2ccc(Cl)cc2)cc1 | PDGFRR-α and CDK1 | –
NC(=O)CSc1nnc(-c2ccc(O)cc2)n1-c1ccccc1 [2-(5-(4-hydroxyphenyl)-4-phenyl-4H-1,2,4-triazol-3-ylthio)acetamide] | GSK3-β and GSK3-α and INSR | –
NC(=O)CSc1nnc(-c2ccc(O)cc2)n1-c1cccc(Cl)c1 | GSK3-β; also recorded: GSK3-α | –
c1ccc(CCn2c(Cc3ccccc3)nnc2SCc2ccccc2)cc1 [3-benzyl-5-(benzylthio)-4-phenethyl-4H-1,2,4-triazole] | – | AURORA-A
O=C1c2ccccc2C(=O)N1CCSc1nnc(-c2ccccc2)[nH]1 [2-(2-(5-phenyl-4H-1,2,4-triazol-3-ylthio)ethyl)isoindoline-1,3-dione] | – | AURORA-A; also recorded: GSK3-β; also recorded: GSK3-α
COC(=O)c1ccccc1NC(=O)CSc1nnc(-c2ccc(O)cc2)n1Cc1ccccc1 | AKT3 and GSK3-β and GSK3-α | –
CCn1c(SCCN2CCCCC2)nnc1-c1ccc([N+](=O)[O-])cc1 [1-(2-(4-ethyl-5-(4-nitrophenyl)-4H-1,2,4-triazol-3-ylthio)ethyl)piperidine] | – | PDGFRR-α
Cc1ccc(CSc2nnc(-c3ccccc3C)n2C)cc1 [4-methyl-3-(4-methylbenzylthio)-5-o-tolyl-4H-1,2,4-triazole] | – | AKT1
Cn1c(SCc2c(F)cccc2Cl)nnc1-c1ccncc1 [4-(5-(2-chloro-6-fluorobenzylthio)-4-methyl-4H-1,2,4-triazol-3-yl)pyridine] | – | GSK3-β; also recorded: AURORA-A
CC(C)(C)c1nnc(SCc2ccncc2)[nH]1 [4-((5-tert-butyl-4H-1,2,4-triazol-3-ylthio)methyl)pyridine] | – | GSK3-α
CCn1c(SCC(=O)Nc2cc(OC)c(OC)cc2C(=O)O)nnc1-c1ccc(O)cc1 | AURORA-A | –
O=c1[nH]c(CSc2nnc(-c3ccccc3O)n2CCc2ccccc2)nc2ccccc12 | – | AKT1
CCOc1ccc(NCc2nnc(SCCN3CCCCC3)n2-c2ccc(C)cc2)cc1 | – | FYN and PDGFRR-α
Cc1cc(NC(=O)CSc2nnc(-c3ccc(O)cc3)n2C)ccc1NC(=O)c1ccccc1C | GSK3-β; also recorded: GSK3-α | –
CN1C=NN(c2cc3ccccc3cc2O)C1SCc1nnc(-c2ccccc2)o1 (stereo not drawn) | – | GSK3-β; also recorded: GSK3-α
Cc1nnc(SCC(=O)Nc2cccc(Cl)c2)n1C [N-(3-chlorophenyl)-2-(4,5-dimethyl-4H-1,2,4-triazol-3-ylthio)acetamide] | DAPK1 | –
N#Cc1ccccc1CSc1nnc(-c2cccnc2)[nH]1 [2-((5-(pyridin-3-yl)-4H-1,2,4-triazol-3-ylthio)methyl)benzonitrile] | – | AURORA-A; also recorded: GSK3-α; also recorded: CHEK2

Compound | Kinase | protein kinase against which the compound exhibits inhibitory activity (Table 3)
COc1ccc(OC)c(C(=O)CSc2nnc(-c3ccccc3N)n2C)c1 | PDGFRR-α | –
Cc1ccc(NCc2nnc(SCC(N)=O)n2CC2CCCO2)cc1Cl (stereo not drawn) | AURORA-A | –
COc1ccc(-c2nnc(SCC(=O)N(C)C)n2-c2ccccc2)cc1 | PDK1 and SYK and INSR | –
CCOC(=O)CSc1nnc(COc2ccc3ccccc3c2)n1C | MAPKAPK-2 | –
O=C(O)CSc1nnc(-c2ccc(S(=O)(=O)N3CCOCC3)cc2)n1-c1ccccc1 | CHEK2 | –
COCCCn1c(C)nnc1SCc1ccc(C(C)(C)C)cc1 [3-(4-tert-butylbenzylthio)-4-(3-methoxypropyl)-5-methyl-4H-1,2,4-triazole] | – | MAPKALPK-2 and AKT1
O=C(CSc1nnc[nH]1)N1c2ccccc2CCc2ccccc21 | – | LCK
COc1ccccc1-n1c(SCC(=O)N2CCCC2)nnc1-c1ccccc1O | – | PRAK
COCCn1c(SCC(=O)Nc2ccc(F)cc2)nnc1-c1ccncc1 | FYN | –
O=C(CSc1nnc(-c2cccnc2)n1Cc1ccccc1)CC(=O)Nc1ccccc1 | AURORA-A | –
O=C(NCCSc1nnc(-c2ccccc2)[nH]1)c1ccccc1 [N-(2-(5-phenyl-4H-1,2,4-triazol-3-ylthio)ethyl)benzamide] | – | GSK3-β; also recorded: DYRK2; also recorded: AURORA-A
COC(=O)CSc1nnc(CNc2ccc(OC)cc2)n1C | PDGFRR-α and FYN | –
CCCCSc1nnc(-c2ccc(OC)cc2)[nH]1 [3-(butylthio)-5-(4-methoxyphenyl)-4H-1,2,4-triazole] | – | AURORA-A; also recorded: FLT-3; also recorded: GSK3-α
CCn1c(CNc2ccc(Cl)cc2)nnc1SCC(=O)Nc1ccccc1 | c-TAK1 | –
Cn1c(COc2ccc([N+](=O)[O-])cc2)nnc1SCC(=O)Nc1sc2c(c1C(N)=O)CCCC2 | GSK3-β; also recorded: GSK3-α; also recorded: AURORA-A | –
CCOc1ccc(Nc2nc(Cc3nnc(SCc4cccnc4)n3CC)cs2)cc1 | – | CHEK2; also recorded: AURORA-A
CCOC(=O)c1ccc(CSc2nnc(-c3ccccc3)[nH]2)o1 [ethyl 5-((5-phenyl-4H-1,2,4-triazol-3-ylthio)methyl)furan-2-carboxylate] | – | AURORA-A; also recorded: FLT-3; also recorded: GSK3-β
Cc1cc(C)nc(SCc2nnc(SCCC(=O)O)n2-c2ccccc2)n1 | – | CHEK2
Cn1c(SCC(=O)Nc2sc3c(c2C#N)CCCC3)nnc1-c1ccc(O)cc1 | PRAK and CDK2-cyclinE and DYRK2 | –
C=CCn1c(SCC(=O)Nc2sc3c(c2C(=O)OCC)CCC3)nnc1-c1ccncc1 | CDK1 and AURORA-A | –

Second part, the molecule after the results:

Kinase | protein kinase against which the compound exhibits inhibitory activity (Table 3) | Compound
DAPK1 | – | Cc1ccc(-c2nnc(SCC(=O)O)n2-c2ccc(C)cc2)cc1 [2-(4,5-dip-tolyl-4H-1,2,4-triazol-3-ylthio)acetic acid]
– | AURORA-A | COc1ccccc1-n1c(SCC(=O)Nc2ccccc2)nnc1-c1ccccc1O
– | GSK3-β; also recorded: GSK3-α | CC(C)=CCSc1nnc(C)n1Cc1ccco1 [4-(furan-2-ylmethyl)-3-methyl-5-(3-methylbut-2-enylthio)-4H-1,2,4-triazole]
GSK3-β; also recorded: GSK3-α | – | COC(=O)c1sc(NC(=O)CSc2nnc(-c3ccc(NS(C)(=O)=O)cc3)n2C)nc1C
GSK3-β; also recorded: GSK3-α | – | COCCn1c(SCC(=O)Nc2ccccc2C(=O)OC)nnc1-c1ccncc1
GSK3-β and AKT1 and GSK3-α | – | NC(=O)CSc1nnc(CNc2ccc(F)cc2)n1Cc1ccccc1
FYN | – | CCOc1ccc(NCc2nnc(SCC(=O)O)n2-c2ccc(C)cc2)cc1
PDGFRR-α and PAK2 | – | CN(C)CCCn1c(SCC(=O)NCc2ccco2)nnc1-c1ccncc1
– | DAPK1 | Cc1ccc(-c2nnc(SCCC(=O)O)n2-c2ccc(C)cc2)cc1 [3-(4,5-dip-tolyl-4H-1,2,4-triazol-3-ylthio)propanoic acid]
– | FYN | COc1ccc(-n2c(SCC(=O)NNC(C)=O)nnc2-c2ccncc2)cc1
CDK1 | – | COc1ccccc1-n1c(SCC(=O)Nc2ccc3sc(C)nc3c2)nnc1-c1ccccc1O
FLT-3 | – | C=CCn1c(Sc2c(O)nc3ccccc3c2-c2ccccc2)nnc1-c1ccc(Cl)c(Cl)c1
AKT1 | – | O=C(CSc1nnc(-c2ccco2)n1-c1ccccc1)NCCc1ccccc1 [2-(5-(furan-2-yl)-4-phenyl-4H-1,2,4-triazol-3-ylthio)-N-phenethylacetamide]
AURORA-A | – | CCc1ccc(OCc2nnc(SCC#N)n2CC)cc1 [2-(4-ethyl-5-((4-ethylphenoxy)methyl)-4H-1,2,4-triazol-3-ylthio)acetonitrile]
– | ROCK2 | COc1ccccc1-n1c(SCc2ccc(Cl)nc2)nnc1-c1cccc(Cl)c1
CDK2-cyclinE | – | COc1ccccc1-c1nnc(S)n1C [5-(2-methoxyphenyl)-4-methyl-4H-1,2,4-triazole-3-thiol]
CDK5 and GSK3-β and GSK3-α | – | COc1ccc(-n2c(S)nnc2-c2ccc(O)cc2)cc1 [4-(5-mercapto-4-(4-methoxyphenyl)-4H-1,2,4-triazol-3-yl)phenol]
FYN and AURORA-A and DAPK1 | – | Cn1c(SCC(=O)N2CCCc3ccccc32)nnc1-c1cc2ccccc2cc1O
FYN and AURORA-A | – | CCOc1ccc(NCc2nnc(SCC(=O)N3CCN(C)CC3)n2-c2ccc(C)cc2)cc1
– | AURORA-A; also recorded: c-TAK1 | Cc1cccc(-c2nnc(SCC3CCCCC3)[nH]2)c1 [3-(cyclohexylmethylthio)-5-m-tolyl-4H-1,2,4-triazole]
GSK3-β; also recorded: GSK3-α | – | COc1ccc(-n2c(SCC(=O)Nc3cccc(C(C)=O)c3)nnc2-c2ccc(O)cc2)cc1
AURORA-A | – | Cc1ccc(NCc2nnc(SCC(=O)Nc3ccc(C)cc3Br)n2-c2ccccc2)cc1
FYN | – | CCn1c(COc2cccc(C)c2)nnc1SCC(=O)N1CCCCC1
DAPK1 | – | COc1ccc(N2CCN(C(=O)CSc3nnc(-c4cc5ccccc5cc4O)n3C)CC2)cc1
FYN and PDGFRR-α and FLT-3 | – | COc1ccc(NCc2nnc(SCC(=O)Nc3ccc(C)cc3Br)n2C)cc1
